{"source": "paper PMC10508484", "about": "“Development and application of a PBPK modeling strategy to support antimalarial drug development” (CPT: Pharmacometrics & Systems Pharmacology, 2023)", "key": {"[1]": {"conditions": "cited from earlier work"}, "[2]": {"conditions": "PBPK input, cited from earlier work"}, "[3]": {"conditions": "1985 26, chloroquine Walker et al., doxycycline Raghuram et al., 1982 48, Nguyen et al., 1989 49, cited from earlier work; for CL renal: PBPK input, ref amodiaquine, DEAQ Winstanley et al., 1987 9, atovaquone Rolan et al., 1997 14, azithromycin Lalak et al., 1993 23, carboxyprimaquine Mihaly et al., 1987 29, DHA EMA Website, 44, mefloquine Schwartz et al., 1982 57, primaquine White, 1985 62, proguanil Jeppesen et al., 1997 34, pyrimeth"}, "[4]": {"conditions": "cited from earlier work", "remark": "listed apart in the source"}, "[5]": {"assay": "In vitro flags for victim and perpetrator properties conferring DDI liability", "format": "in vitro ADME, human", "conditions": "in vitro flag, mainly based on in vitro determinations"}, "[6]": {"test_system": "Caco-2 cells", "conditions": "Caco-2; cited from earlier work"}, "[7]": {"conditions": "ref Charman et al., 2020 1; cited from earlier work"}, "[8]": {"assay": "PBPK simulation of drug-drug interactions (Simcyp V19)", "set-up": "species or system human", "conditions": "ratio of simulated to clinically observed AUC ratio; DDI of the respective line of Table S3", "excerpt": "Here, we provide three example applications where the available PBPK models were used to address questions relating to DDI assessment. […] Additional simulation methods are provided in Appendix S1.\nAll simulations, including the ones performed for the applications, were run using Version 19 of the Simcyp population-based PBPK simulator (Simcyp (Certara), Sheffield, UK) and unless stated otherwise, input parameters for all drugs are as specified (Supplementary Information Table S1). All simulations were run using ten virtual trials that were matched as closely as possible to the clinical study volunteers in terms of the number of subjects, their age, the proportion of males/females and according to the same study design."}, "[9]": {"conditions": "cited from earlier work", "remark": "listed apart in the source"}, "[10]": {"conditions": "midazolam 7.5 mg QD + piperaquine 960 mg QD, ref Eurartesim - EMA Website, 12"}, "[11]": {"conditions": "midazolam 15 mg SD (Day 3) + azithromycin 500 mg QD (3 Days), ref Yeates et al., 1996 6"}, "[12]": {"conditions": "midazolam 15 mg SD (Day 3) + azithromycin 500 mg QD (3 Days), ref Zimmermann et al., 1996 7"}, "[13]": {"conditions": "midazolam 15 mg SD (Day 5) + azithromycin 500 mg QD (Day 1), 250 mg (Days 2-5), ref Backman et al., 1995 5"}}, "note": "Values joined by “and” are separate entries in the source; they are usually repeats but may differ in a detail not shown here. Identical values can stand only once. Like-named read-outs stand apart in the source and are kept apart here."}
{"smiles": "C[C@H]1c2cccc(O)c2C(=O)C2=C(O)[C@]3(O)C(=O)C(C(N)=O)=C(O)[C@@H](N(C)C)[C@@H]3[C@@H](O)[C@@H]21", "note": "[Doxycycline, doxycycline]", "values": [{"measurement": "Log D pH 7.4", "setting": "[1]; lumefantrine: ACD labs value, ref Charman et al., 2020 1", "value": -0.2}, {"measurement": "fu", "setting": "[2]; ref Charman et al., 2020 1", "value": 0.23}, {"measurement": "CL renal", "setting": "[3]", "value": 0.87, "unit": "L/h"}, {"measurement": "CL IV", "setting": "[3]; clinically observed, ref atovaquone Lavelle et al., 1994 17, 1987 29, Gustafsson et al., 1983 30, primaquine Mihaly et al., quinine White et al., 1983 77, Paintaud et al., 1993 78", "value": 2.77, "unit": "L/h"}, {"measurement": "AUC Obs", "setting": "[4]; 100 mg SD, 0-inf, first line, ref Malmborg, 1984 25", "value": 40100, "unit": "ng·h/mL"}, {"measurement": "AUC Obs", "setting": "[4]; 100 mg SD, 0-inf, ref Grahnen et al., 1994 24", "value": 29900, "unit": "ng·h/mL"}, {"measurement": "AUC Obs", "setting": "[4]; 100 mg SD, 0-inf, second line, ref Malmborg, 1984 25", "value": 37400, "unit": "ng·h/mL"}, {"measurement": "Cmax Obs", "setting": "[4]; 100 mg SD, ref Grahnen et al., 1994 24", "value": 1750, "unit": "ng/mL"}, {"measurement": "AUC Obs", "setting": "[4]; 100 mg q24h, 312-408 h, ref Binh et al., 2009 28", "value": 37300, "unit": "ng·h/mL"}, {"measurement": "Cmax Obs", "setting": "[4]; 100 mg q24h, ref Binh et al., 2009 28", "value": 3260, "unit": "ng/mL"}, {"measurement": "AUC Obs", "setting": "[4]; 200 mg SD, 0-inf, ref Wojcicki et al., 1985 26", "value": 40900, "unit": "ng·h/mL"}, {"measurement": "Cmax Obs", "setting": "[4]; 200 mg SD, ref Wojcicki et al., 1985 26", "value": 2610, "unit": "ng/mL"}, {"measurement": "AUC Obs", "setting": "[4]; 200 mg q24h, malaria-infected, 0-24 h, ref Newton et al., 2005 27", "value": 32000, "unit": "ng·h/mL"}, {"measurement": "AUC Obs", "setting": "[4]; 200 mg q24h, malaria-infected, 144-168 h, ref Newton et al., 2005 27", "value": 48600, "unit": "ng·h/mL"}, {"measurement": "Cmax Obs", "setting": "[4]; 200 mg q24h, malaria-infected, window 0-24 h, ref Newton et al., 2005 27", "value": 3170, "unit": "ng/mL"}, {"measurement": "Cmax Obs", "setting": "[4]; 200 mg q24h, malaria-infected, window 144-168 h, ref Newton et al., 2005 27", "value": 4440, "unit": "ng/mL"}, {"measurement": "Risk as a perpetrator", "setting": "[5]", "value": "None identified"}, {"measurement": "Risk as a victim", "setting": "[5]", "value": "Cleared by renal and biliary excretion"}]}
{"smiles": "CC(C)NCC(O)COc1cccc2ccccc12", "note": "(centres unmarked) [Propranolol, propranolol]", "values": [{"measurement": "Papp A-B of calibrator", "setting": "[6]", "value": "72 10-6 cm/s"}]}
{"smiles": "COc1cc(NC(C)CCC(=O)O)c2ncccc2c1", "note": "(centres unmarked) [Carboxyprimaquine, carboxyprimaquine]", "values": [{"measurement": "AUC Obs", "setting": "[4]; 15 mg QD (Day 14), 0-inf, ref Ward et al., 1985 14", "value": 24700, "unit": "ng·h/mL"}, {"measurement": "Cmax Obs", "setting": "[4]; 15 mg QD (Day 14), ref Ward et al., 1985 14", "value": 1240, "unit": "ng/mL"}, {"measurement": "AUC Obs", "setting": "[4]; 15 mg SD, 0-24 h, ref Mihaly et al., 1985 12", "value": 15100, "unit": "ng·h/mL"}, {"measurement": "AUC Obs", "setting": "[4]; 15 mg SD, 0-inf, ref Ward et al., 1985 14", "value": 14200, "unit": "ng·h/mL"}, {"measurement": "Cmax Obs", "setting": "[4]; 15 mg SD, ref Ward et al., 1985 14", "value": 736, "unit": "ng/mL"}, {"measurement": "AUC Obs", "setting": "[4]; 30 mg SD, 0-inf, ref Hanboonkunupakarn et al., 2014 13", "value": 44000, "unit": "ng·h/mL"}, {"measurement": "AUC Obs", "setting": "[4]; 30 mg SD, 0-inf, ref Jittamala et al., 2015 15", "value": 47200, "unit": "ng·h/mL"}, {"measurement": "Cmax Obs", "setting": "[4]; 30 mg SD, ref Hanboonkunupakarn et al., 2014 13", "value": 959, "unit": "ng/mL"}, {"measurement": "Cmax Obs", "setting": "[4]; 30 mg SD, ref Jittamala et al., 2015 15", "value": 1040, "unit": "ng/mL"}, {"measurement": "AUC Obs", "setting": "[4]; 45 mg SD, 0-24 h, ref Mihaly et al., 1985 12", "value": 39900, "unit": "ng·h/mL"}]}
{"smiles": "CC[C@H]1OC(=O)[C@H](C)[C@@H](O[C@H]2C[C@@](C)(OC)[C@@H](O)[C@H](C)O2)[C@H](C)[C@@H](O[C@@H]2O[C@H](C)C[C@H](N(C)C)[C@H]2O)[C@](C)(O)C[C@@H](C)CN(C)[C@H](C)[C@@H](O)[C@]1(C)O", "note": "[Azithromycin, azithromycin]", "values": [{"measurement": "Log P", "setting": "[1]; ref PubChem/DrugBank", "value": 4.02}, {"measurement": "fu", "setting": "[2]; ref atovaquone Mepron Prescribing Information, 2008, Nixon et al., 2013 13, Rolan et al., 1997 14, azithromycin Foulds et al., 1990 20, chloroquine Ofori-Adjei et al., 1986 27, Walker et al., 1983 28, DHA Batty et al., 2004 41 (healthy volunteers), lumefantrine CDER submission 22-269, proguanil Wattanagoon et al., 1987 63, tafenoquine Dow et al., 2020 84", "value": 0.69}, {"measurement": "CL renal", "setting": "[3]", "value": 8.67, "unit": "L/h"}, {"measurement": "AUC Obs", "setting": "[4]; in vivo, 500 mg", "value": 1770, "unit": "ng·h/mL"}, {"measurement": "Cmax Obs", "setting": "[4]; in vivo, 500 mg", "value": 410, "unit": "ng/mL"}, {"measurement": "Risk as a perpetrator", "setting": "[5]", "value": "CYP3A4 time‐dependent inhibitor"}, {"measurement": "Risk as a victim", "setting": "[5]", "value": "Cleared by biliary excretion"}]}
{"smiles": "C=C[C@H]1C[N@@]2CC[C@H]1C[C@H]2[C@H](O)c1ccnc2ccc(OC)cc12", "note": "[Quinine, quinine]", "values": [{"measurement": "B:P", "setting": "[7]", "value": 0.67}, {"measurement": "AUC Obs", "setting": "[4]; in vivo, 550 mg", "value": 50890, "unit": "ng·h/mL"}, {"measurement": "Cmax Obs", "setting": "[4]; in vivo, 550 mg", "value": 2848, "unit": "ng/mL"}, {"measurement": "Risk as a perpetrator", "setting": "[5]", "value": "CYP2D6 inhibitor"}, {"measurement": "Risk as a victim", "setting": "[5]", "value": "Substrate of CYP3A4"}]}
{"smiles": "Cc1ncc2n1-c1ccc(Cl)cc1C(c1ccccc1F)=NC2", "note": "[Midazolam, midazolam]", "values": [{"measurement": "AUC ratios Sim/Obs", "setting": "[8]", "value": "0.91 and 0.83 and 1.22"}, {"measurement": "AUC ratio Obs", "setting": "[9]; [10]", "value": "≤ 2", "unit": "fold"}, {"measurement": "Cmax ratio Obs", "setting": "[9]; [10]", "value": "≤ 2", "unit": "fold"}, {"measurement": "AUC ratio Obs", "setting": "[9]; [11]", "value": 1.19}, {"measurement": "Cmax ratio Obs", "setting": "[9]; [11]", "value": 1.52}, {"measurement": "AUC ratio Obs", "setting": "[9]; [12]", "value": 1.27}, {"measurement": "Cmax ratio Obs", "setting": "[9]; [12]", "value": 1.29}, {"measurement": "AUC ratio Obs", "setting": "[9]; [13]", "value": 0.87}, {"measurement": "Cmax ratio Obs", "setting": "[9]; [13]", "value": 0.66}]}
